Test results reported in patent US8143303B2, “Carbazole derivatives as functional 5-HT6 ligands” (Suven Life Sciences Limited, priority 2005, dated 2012).

Tests used:
[1] = molecular target: T1, Human 5-HT6 receptor (Homo sapiens, UniProt P50406); assay: Nova Screen binding assay for human 5-HT6 receptor ([3H]LSD); settings: Human recombinant receptor expressed in HEK-293 cells; [3H]LSD 1.5 nM; 60 minutes at 37° C.
T1 construct: host or cells: HEK-293
Procedure: Nova Screen Binding Assay for Human 5-HT6 Receptor
Pharmacological data Compounds can be tested according to the following the procedures.
Receptor source: Human recombinant expressed in HEK-293 cells
Radioligand: [^3H]LSD (60-80 Ci/mmol)
Final ligand concentration—[1.5 nM]
Non-specific determinant: Methiothepin mesylate—[0.1 μM]
Reference compound: Methiothepin mesylate
Positive control: Methiothepin mesylate
Incubation conditions: Reactions were carried out in 50 mM TRIS HCl (pH 7.4) containing 10 mM MgCl2, 0.5 mM EDTA for 60 minutes at 37° C. The reaction was terminated by rapid vacuum filtration onto glass fiber filters. Radioactivity trapped onto the filters was determined and compared to control values in order to ascertain any interactions of test compound(s) with the cloned serotonin-5HT6 binding site.
Mol. Pharmacol. (43): 320-327 (1993).

T1 sequence (P50406 whole entry): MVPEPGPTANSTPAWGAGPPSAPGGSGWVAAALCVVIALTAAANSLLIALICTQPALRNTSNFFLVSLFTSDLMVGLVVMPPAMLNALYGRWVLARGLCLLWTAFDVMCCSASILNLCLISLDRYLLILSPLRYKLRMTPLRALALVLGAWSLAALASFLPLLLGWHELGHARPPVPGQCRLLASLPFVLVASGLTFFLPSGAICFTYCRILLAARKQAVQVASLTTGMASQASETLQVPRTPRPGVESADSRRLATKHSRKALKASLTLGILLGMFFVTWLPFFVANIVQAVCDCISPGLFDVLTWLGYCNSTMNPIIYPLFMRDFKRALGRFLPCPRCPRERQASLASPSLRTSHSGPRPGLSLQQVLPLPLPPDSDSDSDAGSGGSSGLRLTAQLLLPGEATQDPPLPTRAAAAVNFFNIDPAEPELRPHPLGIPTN

Row | Compound | melting point [°C] | IC50 [1] [nM] | Ki [1] [nM]
1 | COc1ccc2c(c1)c1c(n2S(=O)(=O)c2ccc(C)cc2)CCC(N(C)C)C1 (stereo not drawn) [Example 27, [6-Methoxy-9-(4-methylbenzenesulfonyl)-2,3,4,9-tetrahydro-1H-carbazol-3-yl]dimethylamine] | 131.8 to 140 | 11.7 | 5.89
2 | COc1ccc2c(c1)c1c(n2S(=O)(=O)c2cccc(C(F)(F)F)c2)CCC(N(C)C)C1 (stereo not drawn) [Example 31, [6-Methoxy-9-(3-trifluoromethylbenzenesulfonyl)-2,3,4,9-tetrahydro-1H-carbazol-3-yl]dimethylamine] | 144 to 146 |  | 
3 | CN(C)C1CCc2c(c3cc(Br)ccc3n2S(=O)(=O)c2ccc(F)cc2)C1 (stereo not drawn) [Example 11, [6-Bromo-9-(4-fluorobenzenesulphonyl)-2,3,4,9-tetrahydro-1H-carbazol-3-yl]dimethylamine] | 158.1 to 160 | 20.2 | 9.42
4 | CN(C)C1CCc2c(c3cc(F)ccc3n2S(=O)(=O)c2ccc(Br)cc2)C1 (stereo not drawn) [Example 24, [6-Fluoro-9-(4-bromobenzenesulfonyl)-2,3,4,9-tetrahydro-1H-carbazol-3-yl]dimethylamine] | 170.6 to 174.1 | 99.7 | 43.5
5 | CN(C)C1CCc2c(c3cc(Br)ccc3n2S(=O)(=O)c2ccccc2Br)C1 (stereo not drawn) [Example 14, [6-Bromo-9-(2-bromobenzenesulphonyl)-2,3,4,9-tetrahydro-1H-carbazol-3-yl]dimethylamine] | 158.78 to 161.04 |  | 
6 | Cc1ccc(S(=O)(=O)n2c3c(c4cc(Cl)ccc42)CC(N(C)C)CC3)cc1 (stereo not drawn) | 130 to 138 |  | 
7 | CN(C)C1CCc2c(c3cc(F)ccc3n2S(=O)(=O)c2ccc(F)cc2)C1 (stereo not drawn) [Example 25, [6-Fluoro-9-(4-fluorobenzenesulfonyl)-2,3,4,9-tetrahydro-1H-carbazol-3-yl]dimethylamine] | 147.5 to 151.2 | 63.5 | 32.8
8 | COc1ccc2c(c1)c1c(n2S(=O)(=O)c2ccccc2)CCC(N(C)C)C1 (stereo not drawn) [Example 26, [6-Methoxy-9-benzenesulfonyl-2,3,4,9-tetrahydro-1H-carbazol-3-yl]dimethylamine] |  | 10.8 | 5.44
9 | COc1ccc2c(c1)c1c(n2S(=O)(=O)c2ccc(Br)cc2)CCC(N(C)C)C1 (stereo not drawn) [Example 29, [6-Methoxy-9-(4-bromobenzenesulfonyl)-2,3,4,9-tetrahydro-1H-carbazol-3-yl]dimethylamine] | 173.2 to 173.8 | 28.9 | 15.1
10 | CSc1ccc2c(c1)c1c(n2S(=O)(=O)c2ccc(C)cc2)CCC(N(C)C)C1 (stereo not drawn) [Example 33, [6-Methylthio-9-(4-methylbenzenesulfonyl)-2,3,4,9-tetrahydro-1H-carbazol-3-yl]dimethylamine] | 105.2 to 115 | 26.1 | 13.8
11 | CN(C)C1CCc2c(c3ccccc3n2S(=O)(=O)c2ccc(F)cc2)C1 (stereo not drawn) [Example 3, 9-[(4-Fluorobenzenesulphonyl)-2,3,4,9-tetrahydro-1H-carbazol-3-yl]dimethylamine] | 130.2 to 132.8 | 27 | 12.5
12 | CN(C)C1CCc2c(c3cc(Br)ccc3n2S(=O)(=O)c2cccc(Cl)c2Cl)C1 (stereo not drawn) [Example 39, [6-Bromo-9-(2,3-dichlorobenzenesulphonyl)-2,3,4,9-tetrahydro-1H-carbazol-3-yl]dimethylamine] | 189 to 192 |  | 
13 | Cc1ccc(S(=O)(=O)n2c3c(c4cc(F)ccc42)CC(N(C)C)CC3)cc1 (stereo not drawn) [Example 22, [6-Fluoro-9-(4-methylbenzenesulfonyl)-2,3,4,9-tetrahydro-1H-carbazol-3-yl]dimethylamine] | 148.8 to 153 | 64.3 | 32.4
14 | CC(C)c1ccc(S(=O)(=O)n2c3c(c4cc(F)ccc42)CC(N(C)C)CC3)cc1 (stereo not drawn) [Example 23, [6-Fluoro-9-(4-isopropylbenzenesulfonyl)-2,3,4,9-tetrahydro-1H-carbazol-3-yl]dimethylamine] | 95.4 to 103.8 | 33.4 | 15.5
15 | CSc1ccc2c(c1)c1c(n2S(=O)(=O)c2ccc(F)cc2)CCC(N(C)C)C1 (stereo not drawn) [Example 35] | 148.9 to 156.1 | 47.1 | 24.9
16 | CN(C)C1CCc2c(c3cc(Cl)ccc3n2S(=O)(=O)c2ccccc2)C1 (stereo not drawn) | 150 to 155 |  | 
17 | CN(C)C1CCc2c(c3cc(Cl)ccc3n2S(=O)(=O)c2ccc(F)cc2)C1 (stereo not drawn) [Example 20, [6-Chloro-9-(4-fluorobenzenesulfonyl)-2,3,4,9-tetrahydro-1H-carbazol-3-yl]dimethylamine] | 150 to 155 |  | 
18 | COc1ccc2c(c1)c1c(n2S(=O)(=O)c2ccc(F)cc2)CCC(N(C)C)C1 (stereo not drawn) [Example 30, [6-Methoxy-9-(4-fluorobenzenesulfonyl)-2,3,4,9-tetrahydro-1H-carbazol-3-yl]dimethylamine] | 160.7 to 163.4 | 52.3 | 24.3
19 | CC(C)c1ccc(S(=O)(=O)n2c3c(c4cc(Br)ccc42)CC(N(C)C)CC3)cc1 (stereo not drawn) | 152.75 to 154.98 |  | 
20 | CN(C)C1CCc2c(c3cc(F)ccc3n2S(=O)(=O)c2ccccc2)C1 (stereo not drawn) [Example 21, [6-Fluoro-9-benzenesulfonyl-2,3,4,9-tetrahydro-1H-carbazol-3-yl]dimethylamine] | 127.7 to 130.3 | 30.5 | 15.7
